Assay: mn = molality of the nth substance listed, in mol/kg
Conditions: 100 kPa, Liquid; for viscosity: Capillary tube (Ostwald / Ubbelohde) method; for speed of sound: Frequency=2 MHz, Linear variable-path acoustic interferometer; for mass density: Vibrating tube method

CC(C)C[P+](C)(CC(C)C)CC(C)C.Cc1ccc(S(=O)(=O)[O-])cc1 [triisobutylmethylphosphonium p-toluenesulfonate] + O
Conditions | mass density [kg/m3] | speed of sound [m/s] | viscosity [mPa·s]
298.15 K, m1 = 0.0237 | 997.74 | 1507.2 | 0.9191
298.15 K, m1 = 0.0468 | 998.42 | 1513.7 | 0.9471
298.15 K, m1 = 0.0663 | 999 | 1518.8 | 0.9707
298.15 K, m1 = 0.0901 | 999.7 | 1524.8 | 0.9996
298.15 K, m1 = 0.1848 | 1002.5 | 1546.4 | 1.115
298.15 K, m1 = 0.2883 | 1005.48 | 1566.5 | 1.241
298.15 K, m1 = 0.3948 | 1008.42 | 1586.1 | 1.373
298.15 K, m1 = 0.4278 | 1009.28 | 1592.4 | 1.413
298.15 K, m1 = 0.478 | 1010.56 | 1601.7 | 1.475
298.15 K, m1 = 0.5156 | 1011.48 | 1608.3 | 1.522
303.15 K, m1 = 0.0237 | 996.31 | 1518.8 | 0.8224
303.15 K, m1 = 0.0468 | 996.97 | 1525.3 | 0.8466
303.15 K, m1 = 0.0663 | 997.53 | 1530.8 | 0.8669
303.15 K, m1 = 0.0901 | 998.21 | 1536.6 | 0.8919
303.15 K, m1 = 0.1848 | 1000.89 | 1555.9 | 0.9914
303.15 K, m1 = 0.2883 | 1003.76 | 1574.5 | 1.101
303.15 K, m1 = 0.3948 | 1006.58 | 1590.7 | 1.214
303.15 K, m1 = 0.4278 | 1007.42 | 1596.2 | 1.249
303.15 K, m1 = 0.478 | 1008.64 | 1604 | 1.302
303.15 K, m1 = 0.5156 | 1009.52 | 1609.4 | 1.343
308.15 K, m1 = 0.0253 | 994.73 | 1528.8 | 0.7415
308.15 K, m1 = 0.053 | 995.49 | 1536.4 | 0.7656
308.15 K, m1 = 0.0791 | 996.21 | 1541.7 | 0.7883
308.15 K, m1 = 0.1003 | 996.79 | 1545.6 | 0.8068
308.15 K, m1 = 0.2056 | 999.66 | 1566.2 | 0.8989
308.15 K, m1 = 0.2689 | 1001.35 | 1577.9 | 0.9546
308.15 K, m1 = 0.3193 | 1002.66 | 1587.2 | 0.999
308.15 K, m1 = 0.3643 | 1003.8 | 1592.7 | 1.039
308.15 K, m1 = 0.4345 | 1005.51 | 1602 | 1.101
308.15 K, m1 = 0.5175 | 1007.42 | 1612.8 | 1.175
313.15 K, m1 = 0.0253 | 992.9 | 1538.7 | 0.6717
313.15 K, m1 = 0.053 | 993.66 | 1545.1 | 0.692
313.15 K, m1 = 0.0791 | 994.36 | 1551.5 | 0.7111
313.15 K, m1 = 0.1003 | 994.92 | 1556.3 | 0.7266
313.15 K, m1 = 0.2056 | 997.66 | 1575.1 | 0.8042
313.15 K, m1 = 0.2689 | 999.26 | 1584.7 | 0.851
313.15 K, m1 = 0.3193 | 1000.5 | 1592.3 | 0.8883
313.15 K, m1 = 0.3643 | 1001.59 | 1598.1 | 0.9218
313.15 K, m1 = 0.4345 | 1003.25 | 1607.3 | 0.9741
313.15 K, m1 = 0.5175 | 1005.14 | 1617.1 | 1.036

Reference: the NIST ThermoML archive (doi:10.1016/j.jct.2015.09.029)
